In one series the target is T1, GPR39 (Homo sapiens, UniProt O43194).
T1 sequence (O43194 1-453): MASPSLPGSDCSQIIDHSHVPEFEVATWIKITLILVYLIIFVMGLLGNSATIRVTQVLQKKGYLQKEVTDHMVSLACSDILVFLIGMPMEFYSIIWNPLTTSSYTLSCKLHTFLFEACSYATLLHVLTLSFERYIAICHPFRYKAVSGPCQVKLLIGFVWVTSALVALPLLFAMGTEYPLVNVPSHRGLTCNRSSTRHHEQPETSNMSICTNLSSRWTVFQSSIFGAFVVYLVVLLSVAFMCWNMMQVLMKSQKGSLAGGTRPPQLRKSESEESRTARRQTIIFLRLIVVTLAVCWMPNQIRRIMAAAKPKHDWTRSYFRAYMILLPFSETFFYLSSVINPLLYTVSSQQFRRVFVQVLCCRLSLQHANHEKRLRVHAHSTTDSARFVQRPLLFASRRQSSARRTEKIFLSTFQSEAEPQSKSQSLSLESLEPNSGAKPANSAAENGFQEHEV
The series is described as follows: cAMP assay (HTRF), HEK293s-hGPR39 cells. The series is classed as cell-based. More on the design: Full length human (AF034633), rat (DM091294) and mouse (BC085285) GPR39; expressed in transfected cells; host or cells: HEK293s (ATCC CRL-1573), pIRESneo3 vector, selected clones. The following applies: for Efficacy at 33 μM: AZ1395 100% reference. From the text:
Full length human (AF034633), rat (DM091294) and mouse (BC085285) GPR39 (GeneArt–Life Technologies, Carlsbad, CA) were subcloned into the pIRESneo3 vector (Clontech, Mountain View, CA). The resulting expression vectors hGPR39-, rGPR39- and mGPR39-pIRESneo3 were transfected into HEK293s cells (ATCC CRL-1573) using Lipofectamine 2000 (Life Technologies). Individual clones were isolated using flow cytometry with a FACSVantage SE DIVA (Becton Dickinson, Franklin Lakes, NJ) and clones were chosen based on responses to Zn^2+ measured in a cAMP assay (see below). […] HEK293s-derived cell lines were cultured at 37°C, 10% CO2 and 95% humidity in DMEM supplemented with 10% FBS and 600 μg/ml Geneticin (Life Technologies). The mouse pancreas epithelial cell line NIT-1 (ATCC CRL-2055) with endogenous expression of GPR39 was cultured at 37°C, 5% CO2, and 95% humidity in Ham´s F12 (Life Technologies) supplemented with 10% FBS.
Measurements of cAMP production were performed using homogeneous time resolved fluorescence (HTRF) cAMP dynamic kits (CisBio, Codolet, France). All buffers and reagents were according to manufacturer’s protocol. In short, 0.1 μl of compounds in DMSO were added to small-volume 384-well plates (Greiner, Frickenhausen, Germany). 12,000 (5 μl) cells in Hank’s balanced salt solution (HBSS) (Life Technologies) and 20 mM HEPES (pH7.4; Life Technologies) were added per well. The production of cAMP was stimulated for 75 min at 37°C by addition of 5 μl 3-isobutyl-1-methylxanthine (0.375 mM final concentration; Sigma-Aldrich, St Louis, MO) and ZnCl2 (0 to 30 μM; Sigma). The reaction was stopped by addition of 5 μl cAMP-d2 and 5 μl anti-cAMP cryptate. The cAMP production was detected by HTRF (λex = 340 nm, λem = 665 and 615 nm) using a Pherastar (BMG Labtech, Ortenberg, Germany).
Concentration response data were fitted with a four parameter logistic fit using Eq 1, y=A+((B−A)/1+((C/x)^D))) (1) where A is no activation, B is full activation, C is the EC50 and D is the Hill slope.
(cAMP levels reflect the balance of adenylyl cyclase and phosphodiesterase activity.)

The nature of series [1]: Unbound plasma exposure in the IPGTT. The format is in vivo, mouse. To be noted: 0-30 min after glucose challenge; IP; lean mice. The procedure: Plasma protein binding of test compound was examined by an equilibrium dialysis method. The compound was mixed with blank mouse plasma to a concentration of 10 μM. The plasma sample and PBS were added to a sample chamber and a buffer chamber of an equilibrium dialysis device, respectively. The device was incubated for 4 h at 37°C in a CO2 incubator (oscillation: 180 rpm). After incubation, an aliquot in each chamber was collected. They were mixed with acetonitrile/methanol (50/50, v/v) and were centrifuged. The supernatants were analyzed by LC-MS/MS. Plasma unbound fraction (f) was calculated by Eq 2, f=Cf/Ct (2) where Cf and Ct represent the compound concentration in the buffer and sample chamber, respectively. […]
The unbound plasma concentrations were calculated by correcting the total plasma concentration derived from the LC/MS analysis by the free fraction, f u. The exposure in terms of the area under the unbound concentration-time curve in the interval 30–60 min after drug administration AUCu 30–60min, i.e. the interval 0–30 min after glucose challenge, was calculated using the linear up-log down trapezoidal method in the non compartmental module of Phoenix 6.2 (Pharsight). […] The ratio between C u,av and the EC 50 of the different in vitro potency assays was calculated for each compound and dose administered.

[2] abbreviates: absence (w/o) of Zn^2+, read-out: EC50.
The mark [3] stands for this setting: presence of 5 μM Zn^2+, read-out: pEC50 ± SD (converted).

Where two headings read alike, the source gives them in different places. Bounds are passed on as bounds.

Four compounds from publication PMC4697807, “Novel Zn^2+ Modulated GPR39 Receptor Agonists Do Not Drive Acute Insulin Secretion in Rodents” (PLoS ONE, 2015) can be followed below.

As for `N#Cc1ccc(OCCn2ccnc2)c(OCCn2ccnc2)c1` [AZ1395, 3,4-bis-(2-imidazol-1-ylethoxy)-benzonitrile], the “Efficacy at 33 μM” value on GPR39 (absence (w/o) of Zn^2+) is reported as 81%. The EC50 at GPR39 (setting [2]) was greater than 33 µM; at GPR39 (presence of 5 μM Zn^2+, read-out: EC50), 0.49 µM.

As to `Cc1nc2c(C(=O)O)cnn2c(O)c1Cc1ccc(Cl)cc1` [AZ4237, 6-[(4-chlorophenyl)methyl]-7-hydroxy-5-methyl-pyrazolo[1,5-a]pyrimidine-3-carboxylic acid], at GPR39 (absence (w/o) of Zn^2+), the “Efficacy at 33 μM” value came out at 49%. The values for the EC50 on GPR39 (setting [2]) and at GPR39 (setting [3]) were greater than 33 µM and 0.389 µM, respectively. In series [1], the “average in vivo exposure (C u,av), unbound” value is 19 µM.

As for `Cc1nc(-c2nc3c(c(=O)[nH]2)CN(C(=O)c2cccc(Cl)c2F)CC3)cs1` [AZ7914, 6-(3-chloro-2-fluoro-benzoyl)-2-(2-methylthiazol-4-yl)-3,5,7,8-tetrahydropyrido-[4,3-d]pyrimidin-4-one], the “Efficacy at 33 μM” value on GPR39 (absence (w/o) of Zn^2+) came out at 21%. Besides, the EC50 on GPR39 (setting [2]) is greater than 33 µM; at GPR39 (setting [3]), 2.29 µM. In addition, the “average in vivo exposure (C u,av), unbound” value in series [1] amounted to 29 µM.

Regarding `[Zn+2]` [Zn^2+], the “pEC50 ± SD” value at GPR39 (Zn^2+ by itself) is “(4.92 ± 0.13)”. Further, at GPR39 (Zn^2+ by itself, read-out: EC50), the EC50 was 12 µM.
